Each structure is given as a SMILES string. The source made the active and inactive calls. For most assays here, no stated cut-off is given here; in the data, actives have a measured Kd and inactives only a lower limit.

The target in assay [1] is cAMP-dependent protein kinase catalytic subunit beta (Homo sapiens, UniProt P22694).
Assay [2] concerns the target BMP-2-inducible protein kinase (Homo sapiens, UniProt Q9NSY1).
The target in assay [3] is Mitogen-activated protein kinase 11 (Homo sapiens, UniProt Q15759).
Assay [4] concerns the target Tyrosine-protein kinase Fyn (Homo sapiens, UniProt P06241).
For assay [5], the target named is Bone morphogenetic protein receptor type-1A (Homo sapiens, UniProt P36894).
Assay [6] deals with GTP-binding nuclear protein Ran (Homo sapiens, UniProt P62826).
Assay [7] deals with T1, Serine/threonine-protein kinase Chk1 (Homo sapiens, UniProt O14757).
T1 sequence (O14757 whole entry): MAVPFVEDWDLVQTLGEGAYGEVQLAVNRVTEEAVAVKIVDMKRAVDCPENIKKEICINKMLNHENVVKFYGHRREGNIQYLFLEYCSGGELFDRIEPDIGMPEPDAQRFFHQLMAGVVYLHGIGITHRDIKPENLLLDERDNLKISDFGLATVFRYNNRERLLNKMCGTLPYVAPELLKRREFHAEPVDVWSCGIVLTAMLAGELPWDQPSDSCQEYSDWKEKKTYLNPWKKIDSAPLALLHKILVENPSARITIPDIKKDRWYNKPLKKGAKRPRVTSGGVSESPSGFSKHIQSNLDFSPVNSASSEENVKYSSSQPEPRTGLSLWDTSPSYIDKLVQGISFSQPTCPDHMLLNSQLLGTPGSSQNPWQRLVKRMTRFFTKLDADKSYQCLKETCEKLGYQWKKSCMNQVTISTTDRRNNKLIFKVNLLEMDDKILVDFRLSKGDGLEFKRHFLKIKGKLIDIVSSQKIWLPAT

Assay [8] concerns the target cAMP-dependent protein kinase type II-alpha regulatory subunit (Homo sapiens, UniProt P13861).
Assay [9] has as its target T2, STE20-related kinase adapter protein alpha (Homo sapiens, UniProt Q7RTN6).
T2 sequence (Q7RTN6 whole entry): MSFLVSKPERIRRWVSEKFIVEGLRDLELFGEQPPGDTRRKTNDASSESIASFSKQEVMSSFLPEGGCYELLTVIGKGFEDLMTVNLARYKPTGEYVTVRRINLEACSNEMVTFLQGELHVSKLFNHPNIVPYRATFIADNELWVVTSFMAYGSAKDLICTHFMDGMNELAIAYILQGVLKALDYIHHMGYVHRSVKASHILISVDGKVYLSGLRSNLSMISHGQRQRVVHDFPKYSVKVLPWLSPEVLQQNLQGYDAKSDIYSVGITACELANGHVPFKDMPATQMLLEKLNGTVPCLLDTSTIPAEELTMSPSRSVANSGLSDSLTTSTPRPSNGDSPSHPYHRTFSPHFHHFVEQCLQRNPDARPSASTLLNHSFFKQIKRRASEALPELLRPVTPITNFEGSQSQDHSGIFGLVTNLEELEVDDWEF

The next assay concerns the target Ephrin type-A receptor 7 (Homo sapiens, UniProt Q15375).
A further assay has as its target T3, Ephrin type-B receptor 2 (Homo sapiens, UniProt P29323).
T3 sequence (P29323 whole entry): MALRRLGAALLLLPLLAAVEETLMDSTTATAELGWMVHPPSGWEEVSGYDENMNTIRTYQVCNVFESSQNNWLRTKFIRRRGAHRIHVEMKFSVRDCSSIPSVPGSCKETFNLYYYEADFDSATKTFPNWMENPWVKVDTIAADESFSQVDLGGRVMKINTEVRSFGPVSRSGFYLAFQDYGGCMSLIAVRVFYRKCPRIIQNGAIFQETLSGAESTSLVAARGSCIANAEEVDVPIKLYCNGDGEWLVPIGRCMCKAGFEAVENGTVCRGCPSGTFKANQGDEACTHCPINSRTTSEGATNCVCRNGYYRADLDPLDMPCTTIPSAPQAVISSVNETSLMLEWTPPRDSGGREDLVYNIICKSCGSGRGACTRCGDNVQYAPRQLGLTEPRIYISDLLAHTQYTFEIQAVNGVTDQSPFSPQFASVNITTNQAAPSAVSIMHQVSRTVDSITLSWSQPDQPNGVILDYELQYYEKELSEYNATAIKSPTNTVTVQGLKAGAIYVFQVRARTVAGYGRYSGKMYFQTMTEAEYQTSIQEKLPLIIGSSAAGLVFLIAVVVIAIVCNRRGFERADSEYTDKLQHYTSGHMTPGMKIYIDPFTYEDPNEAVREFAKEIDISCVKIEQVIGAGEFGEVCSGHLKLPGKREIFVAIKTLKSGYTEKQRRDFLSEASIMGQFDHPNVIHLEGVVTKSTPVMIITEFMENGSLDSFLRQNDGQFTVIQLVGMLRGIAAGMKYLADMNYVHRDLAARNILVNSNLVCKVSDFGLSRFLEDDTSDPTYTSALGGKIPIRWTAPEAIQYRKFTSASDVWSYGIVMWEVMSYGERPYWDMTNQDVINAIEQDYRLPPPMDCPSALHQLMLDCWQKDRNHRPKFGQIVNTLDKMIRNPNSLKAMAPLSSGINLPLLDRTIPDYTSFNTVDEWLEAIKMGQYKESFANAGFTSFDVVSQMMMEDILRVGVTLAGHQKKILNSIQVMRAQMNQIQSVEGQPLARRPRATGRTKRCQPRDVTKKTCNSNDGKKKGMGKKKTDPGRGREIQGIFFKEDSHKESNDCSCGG

The target of assay [10] is Non-receptor tyrosine-protein kinase TYK2 (Homo sapiens, UniProt P29597).
In assay [11] the target is Receptor-interacting serine/threonine-protein kinase 2 (Homo sapiens, UniProt O43353).
Receptor-interacting serine/threonine-protein kinase 2, sequence (O43353 whole entry): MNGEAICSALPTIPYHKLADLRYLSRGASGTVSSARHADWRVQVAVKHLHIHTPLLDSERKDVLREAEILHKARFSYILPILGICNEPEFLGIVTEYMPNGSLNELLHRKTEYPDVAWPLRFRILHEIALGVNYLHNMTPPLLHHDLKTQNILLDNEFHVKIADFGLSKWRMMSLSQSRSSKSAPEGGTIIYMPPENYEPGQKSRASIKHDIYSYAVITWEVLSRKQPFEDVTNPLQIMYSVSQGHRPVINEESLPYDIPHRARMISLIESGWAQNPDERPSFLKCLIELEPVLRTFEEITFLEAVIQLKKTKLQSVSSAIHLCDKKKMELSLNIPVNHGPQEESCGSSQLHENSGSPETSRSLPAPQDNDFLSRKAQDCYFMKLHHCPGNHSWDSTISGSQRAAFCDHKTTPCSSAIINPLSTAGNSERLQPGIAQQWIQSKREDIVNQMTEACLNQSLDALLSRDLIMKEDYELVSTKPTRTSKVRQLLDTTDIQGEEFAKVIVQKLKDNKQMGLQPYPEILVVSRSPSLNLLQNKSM
Assay [12] concerns the target Serine/threonine-protein kinase MRCK gamma (Homo sapiens, UniProt Q6DT37).
For assay [13], the target named is Tyrosine-protein kinase CSK (Homo sapiens, UniProt P41240).
Tyrosine-protein kinase CSK, sequence (P41240 whole entry): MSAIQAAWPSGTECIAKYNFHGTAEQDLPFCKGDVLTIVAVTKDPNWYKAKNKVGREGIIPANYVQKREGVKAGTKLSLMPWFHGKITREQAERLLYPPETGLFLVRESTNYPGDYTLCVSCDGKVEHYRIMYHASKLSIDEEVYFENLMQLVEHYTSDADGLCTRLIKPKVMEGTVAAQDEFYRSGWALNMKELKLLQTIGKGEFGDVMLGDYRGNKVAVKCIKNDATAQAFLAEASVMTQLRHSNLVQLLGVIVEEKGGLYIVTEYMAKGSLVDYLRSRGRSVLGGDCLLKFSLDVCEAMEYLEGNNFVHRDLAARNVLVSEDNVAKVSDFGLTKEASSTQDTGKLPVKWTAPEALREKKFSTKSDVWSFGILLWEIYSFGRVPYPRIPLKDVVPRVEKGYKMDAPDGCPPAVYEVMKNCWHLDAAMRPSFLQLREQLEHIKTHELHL
The target of assay [14] is Dual specificity mitogen-activated protein kinase kinase 2 (Homo sapiens, UniProt P36507).
For assay [15], the target named is Cyclin-dependent kinase 13 (Homo sapiens, UniProt Q14004).
Assay [16] addresses Protein kinase C delta type (Homo sapiens, UniProt Q05655).
Assay [17] has as its target Bone morphogenetic protein receptor type-1B (Homo sapiens, UniProt O00238).

Tyrosine-protein kinase Fyn, sequence (P06241 whole entry): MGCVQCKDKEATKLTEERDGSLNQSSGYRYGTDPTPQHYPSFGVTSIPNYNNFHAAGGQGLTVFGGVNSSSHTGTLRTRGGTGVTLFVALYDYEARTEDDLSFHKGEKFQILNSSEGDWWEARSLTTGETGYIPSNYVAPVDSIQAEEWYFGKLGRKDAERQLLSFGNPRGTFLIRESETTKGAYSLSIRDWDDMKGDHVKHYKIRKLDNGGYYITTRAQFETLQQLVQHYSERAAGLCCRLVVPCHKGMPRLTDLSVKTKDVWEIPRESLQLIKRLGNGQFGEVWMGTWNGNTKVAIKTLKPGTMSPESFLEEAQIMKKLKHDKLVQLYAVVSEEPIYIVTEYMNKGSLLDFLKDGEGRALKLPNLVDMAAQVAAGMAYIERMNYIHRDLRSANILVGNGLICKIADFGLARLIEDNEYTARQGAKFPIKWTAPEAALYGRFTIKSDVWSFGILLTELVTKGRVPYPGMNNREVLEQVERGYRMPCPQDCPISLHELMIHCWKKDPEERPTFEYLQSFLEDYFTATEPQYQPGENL
Ephrin type-A receptor 7, sequence (Q15375 whole entry): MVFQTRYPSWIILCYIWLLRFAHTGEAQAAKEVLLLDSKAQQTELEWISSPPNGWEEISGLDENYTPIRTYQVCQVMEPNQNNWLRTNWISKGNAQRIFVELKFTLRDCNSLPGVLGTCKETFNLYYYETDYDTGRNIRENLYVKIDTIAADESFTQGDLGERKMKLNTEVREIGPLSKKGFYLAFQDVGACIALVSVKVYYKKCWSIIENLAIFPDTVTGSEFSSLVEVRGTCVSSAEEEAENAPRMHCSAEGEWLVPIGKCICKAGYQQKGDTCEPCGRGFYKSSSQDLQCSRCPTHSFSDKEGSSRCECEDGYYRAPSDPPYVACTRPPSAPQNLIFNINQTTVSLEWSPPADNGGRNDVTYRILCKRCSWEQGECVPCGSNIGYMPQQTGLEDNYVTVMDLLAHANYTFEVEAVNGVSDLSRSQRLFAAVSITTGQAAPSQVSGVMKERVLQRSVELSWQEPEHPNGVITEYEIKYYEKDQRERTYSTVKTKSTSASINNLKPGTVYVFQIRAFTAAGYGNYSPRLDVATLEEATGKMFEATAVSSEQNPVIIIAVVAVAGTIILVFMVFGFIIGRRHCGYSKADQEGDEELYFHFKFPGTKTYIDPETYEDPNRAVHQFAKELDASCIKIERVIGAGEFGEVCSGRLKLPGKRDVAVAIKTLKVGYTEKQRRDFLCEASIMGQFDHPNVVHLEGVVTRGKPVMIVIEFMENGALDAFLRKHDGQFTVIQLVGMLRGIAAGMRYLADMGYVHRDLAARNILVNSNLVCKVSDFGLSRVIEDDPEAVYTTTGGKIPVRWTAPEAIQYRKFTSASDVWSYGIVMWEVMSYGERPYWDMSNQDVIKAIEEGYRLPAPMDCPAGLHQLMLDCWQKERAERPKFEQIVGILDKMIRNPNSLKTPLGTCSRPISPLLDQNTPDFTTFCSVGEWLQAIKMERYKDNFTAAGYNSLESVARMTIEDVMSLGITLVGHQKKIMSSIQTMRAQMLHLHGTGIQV
Serine/threonine-protein kinase MRCK gamma, sequence (Q6DT37 whole entry): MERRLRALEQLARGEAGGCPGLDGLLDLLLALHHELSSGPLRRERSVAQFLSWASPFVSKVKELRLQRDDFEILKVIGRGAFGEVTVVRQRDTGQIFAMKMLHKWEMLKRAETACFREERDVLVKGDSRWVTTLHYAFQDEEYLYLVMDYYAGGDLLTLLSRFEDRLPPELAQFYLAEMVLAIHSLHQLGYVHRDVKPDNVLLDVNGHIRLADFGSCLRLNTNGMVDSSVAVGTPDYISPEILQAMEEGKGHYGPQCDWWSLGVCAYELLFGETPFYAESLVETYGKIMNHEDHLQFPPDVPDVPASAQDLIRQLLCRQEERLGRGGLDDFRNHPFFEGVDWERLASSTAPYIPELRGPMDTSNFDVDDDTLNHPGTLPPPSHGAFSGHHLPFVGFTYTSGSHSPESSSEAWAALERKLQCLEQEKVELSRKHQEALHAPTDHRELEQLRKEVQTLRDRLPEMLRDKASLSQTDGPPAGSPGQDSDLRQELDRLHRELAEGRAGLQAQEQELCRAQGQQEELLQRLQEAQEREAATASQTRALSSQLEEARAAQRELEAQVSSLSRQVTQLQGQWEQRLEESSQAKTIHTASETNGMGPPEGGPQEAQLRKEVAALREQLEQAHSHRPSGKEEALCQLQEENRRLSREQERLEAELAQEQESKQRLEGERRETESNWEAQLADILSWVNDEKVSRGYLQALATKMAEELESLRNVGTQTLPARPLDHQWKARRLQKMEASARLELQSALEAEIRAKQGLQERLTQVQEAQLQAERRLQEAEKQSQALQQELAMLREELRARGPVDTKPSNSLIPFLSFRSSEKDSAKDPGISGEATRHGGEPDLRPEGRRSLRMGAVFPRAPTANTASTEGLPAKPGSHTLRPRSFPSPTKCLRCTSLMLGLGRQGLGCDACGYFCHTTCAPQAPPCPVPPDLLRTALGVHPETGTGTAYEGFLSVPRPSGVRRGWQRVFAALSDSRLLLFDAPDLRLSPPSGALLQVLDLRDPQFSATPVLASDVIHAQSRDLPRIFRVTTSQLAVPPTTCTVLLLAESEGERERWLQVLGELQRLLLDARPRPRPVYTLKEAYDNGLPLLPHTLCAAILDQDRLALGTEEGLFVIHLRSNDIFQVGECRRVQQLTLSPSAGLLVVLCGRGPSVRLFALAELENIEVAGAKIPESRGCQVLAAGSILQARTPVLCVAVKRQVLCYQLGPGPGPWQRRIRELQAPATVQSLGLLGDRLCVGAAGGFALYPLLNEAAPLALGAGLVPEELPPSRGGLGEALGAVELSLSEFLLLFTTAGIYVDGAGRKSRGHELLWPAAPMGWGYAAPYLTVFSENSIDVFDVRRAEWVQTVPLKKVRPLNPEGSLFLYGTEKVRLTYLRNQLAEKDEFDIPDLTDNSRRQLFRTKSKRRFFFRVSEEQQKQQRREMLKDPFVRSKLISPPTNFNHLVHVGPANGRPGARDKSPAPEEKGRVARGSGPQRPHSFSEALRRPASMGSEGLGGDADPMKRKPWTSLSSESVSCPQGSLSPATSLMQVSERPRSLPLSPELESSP
Protein kinase C delta type, sequence (Q05655 whole entry): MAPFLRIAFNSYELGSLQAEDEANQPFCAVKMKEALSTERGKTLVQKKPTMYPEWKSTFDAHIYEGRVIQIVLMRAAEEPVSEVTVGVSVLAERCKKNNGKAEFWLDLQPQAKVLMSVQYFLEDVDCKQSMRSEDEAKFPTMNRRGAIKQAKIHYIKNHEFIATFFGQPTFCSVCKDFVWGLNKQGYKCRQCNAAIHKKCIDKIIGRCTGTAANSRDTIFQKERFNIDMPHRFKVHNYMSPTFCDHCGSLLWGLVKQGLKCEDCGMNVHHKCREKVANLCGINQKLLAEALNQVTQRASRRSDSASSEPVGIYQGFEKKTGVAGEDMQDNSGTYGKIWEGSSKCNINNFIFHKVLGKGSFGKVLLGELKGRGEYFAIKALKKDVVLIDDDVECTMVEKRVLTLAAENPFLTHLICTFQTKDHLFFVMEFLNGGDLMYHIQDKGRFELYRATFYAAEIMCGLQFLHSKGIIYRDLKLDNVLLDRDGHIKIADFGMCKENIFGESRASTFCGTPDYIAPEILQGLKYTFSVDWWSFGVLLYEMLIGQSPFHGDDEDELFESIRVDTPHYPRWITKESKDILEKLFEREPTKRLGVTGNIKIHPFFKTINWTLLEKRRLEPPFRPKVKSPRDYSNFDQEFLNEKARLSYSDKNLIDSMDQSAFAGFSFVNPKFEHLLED

Regarding `CN1CCN(c2nc(C3=C(c4c[nH]c5ccccc45)C(=O)NC3=O)c3ccccc3n2)CC1` [SOTRASTAURIN], the Kd in assay [1], in [2], in [3], in [4], in assay [5] and in [6] was > 30 µM (inactive) in each case. Moreover, the Kd (in [7]; in [8]; in assay [9]; on Ephrin type-A receptor 7; on Ephrin type-B receptor 2; in assay [10]) was > 30 µM (inactive) in each case. Moreover, the Kd in assay [11] is > 30 µM (inactive); in assay [12], > 30 µM (inactive); in assay [13] it was > 30 µM (inactive); in assay [14] it was > 30 µM (inactive); in assay [15] it was > 30 µM (inactive); in [16], 0.005 µM (active). Further, the Kd in assay [17] is > 30 µM (inactive).
In the case of `COc1cccc2cc(-c3nc([C@H]4CC[C@H](C(=O)O)CC4)n4ncnc(N)c34)[nH]c12` [OSI-027], the Kd in [1], in assay [2], in [3], in [4], in assay [5] and in assay [6] was > 30 µM (inactive) each time. In addition, the Kd (in assay [7]; in [8]; in assay [9]; at Ephrin type-A receptor 7; on Ephrin type-B receptor 2; in assay [10]) was > 30 µM (inactive) throughout. For the same compound, the dissociation constant Kd in assay [11] is 1.16 µM (active); in assay [12] it was > 30 µM (inactive); in assay [13], > 30 µM (inactive); in [14], > 30 µM (inactive); in [15], > 30 µM (inactive); in [16], > 30 µM (inactive). Moreover, the Kd in assay [17] was > 30 µM (inactive).
Turning to `COc1ccc2c(OCc3nnc4ccc(-c5ccccc5)nn34)ccnc2c1` [AMG-208], the Kd in assay [1], in assay [2], in [3], in [4], in assay [5] and in [6] was > 30 µM (inactive) throughout. In addition, the Kd (in [7]; in [8]; in [9]; at Ephrin type-A receptor 7; on Ephrin type-B receptor 2; in assay [10]) was > 30 µM (inactive) each time. The Kd in assay [11], in assay [12], in [13], in [14], in assay [15] and in assay [16] was > 30 µM (inactive) throughout. In addition, in [17], the Kd is > 30 µM (inactive).
`COc1cc2ncnc(Nc3ccc(F)c(Cl)c3)c2cc1NC(=O)/C=C/CN1CCCCC1` [DACOMITINIB ANHYDROUS]: the Kd in assay [1], in assay [2], in assay [3], in assay [4], in [5] and in assay [6] was > 30 µM (inactive) each time. Besides, the Kd (in assay [7]; in [8]; in [9]; on Ephrin type-A receptor 7; at Ephrin type-B receptor 2; in [10]) was > 30 µM (inactive) each time. The Kd in [11] is 0.988 µM (active); in [12], > 30 µM (inactive); in assay [13], > 30 µM (inactive); in [14] it was > 30 µM (inactive); in assay [15], > 30 µM (inactive); in assay [16], > 30 µM (inactive). The Kd in assay [17] was > 30 µM (inactive).
Consider `COc1cc2nccc(Oc3ccc(NC(=O)C4(C(=O)Nc5ccc(F)cc5)CC4)cc3)c2cc1OC` [CABOZANTINIB], for which the Kd in [1], in assay [2], in assay [3], in assay [4], in assay [5] and in [6] was > 30 µM (inactive) throughout. For the same compound, the Kd (in assay [7]; in assay [8]; in assay [9]; at Ephrin type-A receptor 7; at Ephrin type-B receptor 2; in assay [10]) was > 30 µM (inactive) throughout. In addition, the Kd was 0.767 µM (active) in assay [11]; > 30 µM (inactive) in [12]; > 30 µM (inactive) in assay [13]; > 30 µM (inactive) in assay [14]; > 30 µM (inactive) in [15]; > 30 µM (inactive) in [16]. Moreover, the Kd in [17] was > 30 µM (inactive).
On to `NC[C@@](O)(c1ccc(Cl)cc1)c1ccc(-c2cn[nH]c2)cc1` [AT-13148], for which the Kd is 0.014 µM (active) in [1]; > 30 µM (inactive) in assay [2]; > 30 µM (inactive) in assay [3]; > 30 µM (inactive) in [4]; > 30 µM (inactive) in assay [5]; > 30 µM (inactive) in assay [6]. The Kd (in [7]; in assay [8]; in assay [9]; at Ephrin type-A receptor 7; at Ephrin type-B receptor 2; in assay [10]) was > 30 µM (inactive) in each case. The Kd is > 30 µM (inactive) in assay [11]; > 30 µM (inactive) in [12]; > 30 µM (inactive) in [13]; > 30 µM (inactive) in assay [14]; > 30 µM (inactive) in assay [15]; 0.044 µM (active) in assay [16]. Further, in assay [17], the Kd is > 30 µM (inactive).

A word on the Kd: it is the constant that tells how readily two partners part at equilibrium.

These data come from ChEMBL document CHEMBL3991601, “The target landscape of clinical kinase drugs” (Science, 2017).
